# Measured values taken from ChEMBL document CHEMBL1147590, “Synthesis and antitumor activity of s-tetrazine derivatives” (Bioorg Med Chem Lett, 2004).
# Columns and labels:
# A549 [1] = experiment: In vitro rate of inhibition of A-549 tumor cell growth at 10E-4 mol/L; type: functional, Homo sapiens; settings: at 100 µM
# A549 [2] = experiment: In vitro rate of inhibition of A-549 tumor cell growth at 10E-5 mol/L; type: functional, Homo sapiens; settings: at 10 µM
# A549 [3] = experiment: In vitro rate of inhibition of A-549 tumor cell growth at 10E-7 mol/L; type: functional, Homo sapiens; settings: at 0.1 µM
# A549 [4] = experiment: In vitro rate of inhibition of A-549 tumor cell growth at 10E-8 mol/L; type: functional, Homo sapiens; settings: at 0.01 µM
# P388 [5] = experiment: In vitro rate of inhibition of P388 tumor cell growth at 10E-5 mol/L; type: functional, Mus musculus; settings: at 10 µM
# P388 [6] = experiment: In vitro rate of inhibition of P388 tumor cell growth at 10E-6 mol/L; type: functional, Mus musculus; settings: at 1 µM
# P388 [7] = experiment: In vitro rate of inhibition of P388 tumor cell growth at 10E-7 mol/L; type: functional, Mus musculus; settings: at 0.1 µM
# P388 [8] = experiment: In vitro rate of inhibition of P388 tumor cell growth at 10E-8 mol/L; type: functional, Mus musculus; settings: at 0.01 µM
# A549 [9] = experiment: In vitro rate of inhibition of A-549 tumor cell growth at 10E-6 mol/L; type: functional, Homo sapiens; settings: at 1 µM
# P388 [10] = experiment: In vitro rate of inhibition of P388 tumor cell growth at 10E-4 mol/L; type: functional, Mus musculus; settings: at 100 µM
Structure (SMILES),Rate of inhibition (A549 [1]) [%],Rate of inhibition (A549 [2]) [%],Rate of inhibition (A549 [3]) [%],Rate of inhibition (A549 [4]) [%],Rate of inhibition (P388 [5]) [%],Rate of inhibition (P388 [6]) [%],Rate of inhibition (P388 [7]) [%],Rate of inhibition (P388 [8]) [%],Rate of inhibition (A549 [9]) [%],Rate of inhibition (P388 [10]) [%]
COc1cc(NC(=O)N2N=C(C)N(C(=O)Nc3cc(OC)cc(OC)c3)N=C2C)cc(OC)c1,87.5,79.3,75,26.1,88.8,88.9,90.7,73.1,77.3,94.4
CCOC(=O)N1C(c2ccccc2)=NN=C(c2ccccc2)N1C(=O)OCC,95.3,10.8,0,0,35.6,7,4.9,2.8,0,93.9
CC1=NN(C(=O)Nc2ccccc2C)C(C)=NN1C(=O)Nc1ccccc1C,80,0,0,0,18.8,1.6,0,0,0,82.8
CCOC(=O)c1ccc(NC(=O)N2N=C(C)N(C(=O)Nc3ccc(C(=O)OCC)cc3)N=C2C)cc1,27.3,28.8,0,0,25.4,1.6,0,0,0,63.5
COc1ccc(NC(=O)N2N=C(C)N(C(=O)Nc3ccc(OC)cc3)N=C2C)cc1,24.2,0.9,0,0,36.5,14.3,6.3,0,0,73
COc1cccc(NC(=O)N2N=C(C)N(C(=O)Nc3cccc(OC)c3)N=C2C)c1,87.7,86.2,89.2,86.2,93.8,93.8,95.2,92.2,84.6,95.3
CCCCCOC(=O)N1N=C(CCC)N=NC1CCC (stereo not given),0,0.7,0,2.5,7.7,5.6,0,0,2.3,32.8
CCCC1=NN(C(=O)OC2CCCCC2)C(CCC)N=N1 (stereo not given),25.8,5.2,18.1,1,33.6,38.3,44.8,4.5,23.5,44
CC1=NN(C(=O)Nc2cc(Cl)cc(Cl)c2)C(C)=NN1C(=O)Nc1cc(Cl)cc(Cl)c1,42,0,0,0,5.9,1.9,0,0,0,30.6
CCCC1NN(C(C)=O)C(CCC)NN1C(C)=O (stereo not given),59.8,8.6,1.2,0,5.5,3.2,3.1,0,4,38.5
CC1=NN(C(=O)NCc2ccccc2)C(C)=NN1C(=O)NCc1ccccc1,64.4,82.3,32,14.1,57.5,50.3,22,19.6,81.8,92.8
CC1=NN(C(=O)Nc2ccccc2Cl)C(C)=NN1C(=O)Nc1ccccc1Cl,28.8,0,0,0,41.3,1.6,0,0,0,90.5
c1ccc(Cc2nnc(Cc3ccccc3)nn2)cc1,66.8,61.7,0,0,15.6,18.5,4.6,0,4.3,51
CC1=NN(C(=O)Nc2cccc3ccccc23)C(C)=NN1C(=O)Nc1cccc2ccccc12,56.6,16.9,10,4.4,6.3,0,0,0,9.1,60.5
CC1=NN(C(=O)Nc2cc(C)cc(C)c2)C(C)=NN1C(=O)Nc1cc(C)cc(C)c1,86.4,73.9,0,0,91.7,31.5,0,0,37.5,90.7
CC1=NN(C(=O)Nc2ccc(Cl)cc2)C(C)=NN1C(=O)Nc1ccc(Cl)cc1,53.4,14.8,7.4,0,14.8,1.9,7.4,0,1.9,50
CC(=O)N1N=C(c2ccccc2)NN=C1c1ccccc1,85.1,0,0,0,10.9,6.6,5.5,9.2,0,62.7
CC1=NN(C(=O)NC2CCCCC2)C(C)=NN1C(=O)NC1CCCCC1,58.9,3.5,0,0,0,0,0,0,0,72.6
CC1=NN(C(=O)Nc2cccc(N(C)C)c2)C(C)=NN1C(=O)Nc1cccc(N(C)C)c1,93.2,83,73.9,69.3,84.3,89.8,88.9,90.7,80.7,95.4
CC1=NN(C(=O)Oc2ccccc2)C(C)N=N1 (stereo not given),32.1,0,0,0,27.9,13.6,1.2,0,0,85.3
CCCC1=NN(C(=O)OCC)C(CCC)N=N1 (stereo not given),12.5,0,0,0,15,2.2,5,3.6,0,35.4
CC1=NN(C(=O)Nc2cccc([N+](=O)[O-])c2)C(C)=NN1C(=O)Nc1cccc([N+](=O)[O-])c1,0.9,0,0,0,58.7,38.1,20.6,22.2,0,69.8
CCC1=NN(C(=O)Nc2cccc(C)c2)C(CC)=NN1C(=O)Nc1cccc(C)c1,90.4,84.1,16.7,1.6,63.5,0,0,0,81.1,91.6
COc1ccccc1C(=O)N1N=C(c2ccccc2)NN=C1c1ccccc1,90.9,72.6,0,0,25.2,7.4,0.8,0,4.7,64.5
